Reference: patent US5211657A, “Laminin a chain deduced amino acid sequence, expression vectors and active synthetic peptides” (The United States Government as represented by the …, priority 1988, dated 1993)

Key:
[1] = tested on: endothelial cell binding to laminin; test: Competition with intact laminin for endothelial cell binding; type: cell-based; settings: endothelial cells
From the text: Many of the same cells which recognize peptide PA22-2 and YIGSR also recognize and bind to PA21 and PA26 but the degree of binding is quite different. […] Since the sequence of PA36 is unique to laminin, the response of endothelial cells to PA36 is likely to be specific to the peptide.

HUVEC (endothelia cell) = test: Cell attachment and spreading on coated dish (Table IV); type: cell-based, Human; settings: endothelial cells
Protocol: (§1) A further aspect of the invention provides synthetic peptides from the deduced amino acid sequence of the cDNA sequence for the A chain. These synthetic peptides can be synthesized by any suitable method such as one previously used by our group (Graf et al (1987) Cell 48:989). A variety of synthetic peptides are tested for biological activity such as promoting cell adhesion, migration, growth and preventing invasion of tumor cells (see locations and sequences of the active peptides in FIG. 14 and Table III). […] A: increasing amounts of peptide were coated onto a 24 well dish in DMEM for 2 hours. The unbound peptide was removed and the wells were incubated with DMEM containing 3% BSA before the addition of cells. B and C: Morphological appearance of cells attached on peptide and laminin substrates. In the absence of peptides or laminin, few cells were attached. Table III is shown below.
(§2) This peptide is active with various cells and its activity can be equal to that of laminin itself in terms of the total number of cells that can attach to surfaces coated with the peptide. […] Table IV is shown below.

[2] = tested on: cells in culture and tumor cells in vivo; test: Various biological activities with cells in culture and tumor cells in vivo (comparison of derivatives); settings: all presently found activities
[3] = tested on: Human umbilical vein endothelial cells; test: Endothelial cell tube formation on reconstituted basement membrane; type: cell-based
Protocol: Human umbilical vein endothelial cells when coated on a reconstituted basement membrane substrate rapidly (by 12 hours) organize into capillary-like structures (see FIG. 18A). […] It may have a potential clinical use in blocking blood vessel formation as for example, during the vascularization of tumors and in diabetic retinopathy (ex diabetic retinopathy or Kaposi sarcoma). […] 18A: Morphology of cells. Cells were plated on a reconstituted basement membrane substrate and after 2 and 18 hours it is apparent that the cells line up into capillary-like structures. […] 18B: Adhesion to peptides. 18C: peptide inhibition of tube formation.

[4] = tested on: HT-1080 fibrosarcoma cells; test: Collagenase production (collagen IV degrading enzymes in conditioned medium); type: cell-based; settings: HT-1080 cells treated for 6 hours
Protocol: This enzyme is thought to be important in cancer where its production is correlated with the invasive and metastatic activity of malignant tumor cells. In fact, degradation of basement membranes by collagenase IV is a necessary step in the metastatic process. […] The cells were treated for 6 hours with various amounts of the peptide and then the conditional medium was assayed for the production of collagen IV degrading enzymes. The effect is dose-dependent and is not reproduced by any other peptide tested to date. The importance of localizing this activity to peptide PA22-2 is that it will now be possible to more precisely define the molecular events involved in the metastatic process. Competitive inhibitors of this activity can be readily designed by modification of the composition of the active peptide i.e. Dasmano acids, cyclic forms etc. There may also be situations where the production of the enzyme could be advantageous such as in speeding the migration of leukocytes to sites of infection.

[5] = tested on: neural cell lines (PC-12, NG108-15) and primary cultures of neural cells; test: Neurite outgrowth / process formation on coated peptide; type: cell-based; settings: peptide coated on plastic dish
Protocol: In fact, laminin promotes regeneration faster and over greater distances than any other factor described to date. […] It is active in a dose-dependent manner and is active both with neural cell lines (PC-12 FIGS. 17A and B and NG108-15) and with primary cultures of neural cells both from the peripheral and the central nervous system. The processes formed appear identical to those observed with intact laminin (see FIG. 17A).
The assay was carried out in a similar manner to the cell adhesion assay. 17A: Morphology after 4 hours. 17B: Dose response curve showing number of processes formed. Cells were directly counted from at least 10 microscopic fields.

[6] = tested on: laminin-mediated cell adhesion; test: Blocking of laminin-mediated cell attachment by soluble peptide; type: cell-based; settings: laminin coated dish; peptide added with cells; one and a half hours
Protocol: Laminin was coated on the dish as described above, then peptide togehter with cells were added to the dishes and cell adhesion after one and a half hours was determined.

B16F10 Melonoma Cells = test: Lung tumor formation after tail vein injection of B16F10 melanoma cells with peptide; type: in vivo, mice; settings: for Number of Tumors/animal: lung surface tumors after 3 weeks, no peptide: 26
From the text: It is well known that tumor cells must attach degrade, and migrate through basement membranes in order to spread to distant sites. Laminin is known to increase the metastic phenotype of tumor cells and the number of tumors formed in mice. Using a line of B16 melanoma cells which specifically colonize the lung when injected into mouse tail vein, we have studied the effect of peptide PA22-2 on the formation of lung tumors.
In these studies, various amounts of peptide PA22-2 are mixed with the B16F10 melanoma cells (5×10^4) and injected into mice via the tail vein. Eight mice are injected for each concentration of test peptide. After 2-3 weeks, the mice are sacrificed and the number of […] colonies on the lung surface are counted.
10^5 melanoma cells in a final volume of 0.2 ml of Dulbecco's
modification of Eagle's medium (DMEM) containing the indicated amount and
type of peptide were injected in the tail vein. Eight mice were in each
test group. After 3 weeks, the mice were sacrificed, lungs were removed.
The number of tumors on the surface of the lungs was determined by using
Each group contained 8 mice which were injected with […] B16F10 Melanoma cells via the tail vein in a final volume of 0.2 DMEM containing the designated amount of peptide. After three weeks, the animals were sacrificed and the number of colonies on the surface of the lungs was determined.

cell migration = test: Cell migration; type: cell-based
B16-F10 and PC12 cells = test: Cell growth; type: cell-based
various cells = test: Cell attachment to peptide coated on plastic; type: cell-based
Protocol: as §1, §2

HT1080 (fibrosarcoma) = test: Cell attachment and spreading on coated dish (Table IV); type: cell-based; settings: HT-1080
Protocol: as §1, §2

B16F10 (melanoma) = test: as above; type: cell-based
Protocol: as §1, §2

EGF-like activity = settings: personal communication; cited from earlier work
[7] = tested on: HT-1080 fibrosarcoma cells; settings: background statement; cited from earlier work
[8] = tested on: neural cell lines (PC-12, NG108-15) and primary cultures of neural cells; settings: background statement; cited from earlier work

CSKCQAGTFALR [PA36]
Competition with intact laminin for endothelial cell binding to laminin [1]: effectively competes with intact laminin for endothelial cell binding to laminin
Endothelial cell adhesion to peptide (HUVEC (endothelia cell)): specifically active with endothelial cells for cell adhesion

XRKQAASIKVAVS [PA22-3]
Activity relative to PA22-2 [2]: almost equally active

XSRARQAASIKVAVSADR [PA22-2]
Adhesion of HUVEC [3]: does not alter the adhesion of these cells
Formation of capillary-like structures (tube formation) ([3]; HUVEC on reconstituted basement membrane): block the formation of capillary-like structures
Production of collagenase [4]: increase in the production of collagenase to levels comparable to those observed with intact laminin
Neurite outgrowth promoting activity [5]: mimics the neurite promoting activity of laminin
Blocking of laminin-mediated cell adhesion [6]: can complete (i.e. block) laminin-mediated cell adhesion
Number of Tumors/animal (B16F10 Melonoma Cells; 0.5 mg peptide injected with melanoma cells in tail vein): 44
Number of Tumors/animal (B16F10 Melonoma Cells; 1 mg peptide injected with melanoma cells in tail vein): 53
Increase in the number of lung tumors (B16F10 Melonoma Cells; 1 mg/mouse): two-fold increase
Cell migration (cell migration): active
Heparin binding (Heparin binding): promote activity to bind heparin
Cell growth (B16-F10 and PC12 cells): stimulate growth
Cell adhesion / attachment to coated peptide (various cells): promotes the adhesion of various epithelial cells in a rapid dose-dependent manner
Spreading on substrates coated with the peptide (HT1080 (fibrosarcoma)): spreading is not observed
Spreading on substrates coated with the peptide (B16F10 (melanoma)): spreading is observed

XIKVAVSADR [PA22-4]
Activity relative to PA22-2 [2]: almost equally active

XGQIKKSPAVKVT [pA31-2]
Cell adhesion / attachment to coated peptide (various cells): has some cell attachment activity

XFALRGDNPQG [PA26]
Cell adhesion / attachment to coated peptide (various cells): support the attachment of many cells

Laminin: large glycoprotein localized to basement membranes, composed of three chains A, B1 and B2; prepared from EHS tumor
EGF-like activity (EGF-like activity): exert EGF-like growth factor activity
Collagenase production / release (background) [7]: induces the production of collagenase IV
Neurite outgrowth promoting activity (background) [8]: very active in promoting neurite outgrowth

XGQIKKSPAVKVTHFKG [pA31-1]
Cell adhesion / attachment to coated peptide (various cells): active for cell attachment
